Assay results: PubChem BioAssay (NCI)
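Step 1: Grow cells in 96-well plates. Step 2: Expose to compound for 48 hours at 5 concentrations. Step 3: Interpolate endpoints linearly; if unreached, use highest concentration. Abbreviation: GI50, concentration required for 50% inhibition of growth. TGI marks complete inhibition of growth.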

Experiments:
Experiment in all cases: DTP human tumour cell line panel, 48 h
A549 NSCLC = system: A549 NSCLC
ACHN renal = system: ACHN renal
COLO 205 colon = system: COLO 205 colon
HCC-2998 colon = system: HCC-2998 colon
HL-60(TB) leukemia = system: HL-60(TB) leukemia
HOP-62 NSCLC = system: HOP-62 NSCLC
MALME-3M melanoma = system: MALME-3M melanoma
NCI-H522 lung = system: NCI-H522 lung
OVCAR-8 ovarian = system: OVCAR-8 ovarian
RPMI-8226 leukemia = system: RPMI-8226 leukemia

SMILES	GI50 (A549 NSCLC) [µM]	TGI (A549 NSCLC) [µM]	GI50 (ACHN renal) [µM]	TGI (ACHN renal) [µM]	GI50 (COLO 205 colon) [µM]	TGI (COLO 205 colon) [µM]	GI50 (HCC-2998 colon) [µM]	TGI (HCC-2998 colon) [µM]	GI50 (HL-60(TB) leukemia) [µM]	TGI (HL-60(TB) leukemia) [µM]	GI50 (HOP-62 NSCLC) [µM]	TGI (HOP-62 NSCLC) [µM]	GI50 (MALME-3M melanoma) [µM]	TGI (MALME-3M melanoma) [µM]	GI50 (NCI-H522 lung) [µM]	TGI (NCI-H522 lung) [µM]	GI50 (OVCAR-8 ovarian) [µM]	TGI (OVCAR-8 ovarian) [µM]	GI50 (RPMI-8226 leukemia) [µM]	TGI (RPMI-8226 leukemia) [µM]
Cc1cc(N2CCCC2)nc(N(CCCNc2ccnc3cc(Cl)ccc23)Cc2ccc3c(c2)OCO3)n1	2.74	12.5	1.67	5.93	1.39	3	1.79	3.79	0.402	1.36	1.83	10.2	1.65	3.2	1.66	3.95	1.8	5.41	0.322	1.72
CC(=O)Oc1ccccc1C(=O)C1c2cccc(O)c2C(=O)c2c(O)cccc21		2.86		3.45		1.86		6.5		0.727		3.4		4.01		3.88		4.34		2.48
COC(=O)C(Cc1nc2ccc(Cl)cc2[nH]c1=O)C(=O)C(=O)Nc1ccccc1[N+](=O)[O-] (centres undefined)		> 100		> 100		> 100		> 100		> 100		> 100		> 100		> 100		> 100		> 100
Cn1cc(-c2ccc(CNc3cc(-c4cnc5cc(OCCCN6CCCC6)ccn45)ncn3)cc2)cn1	1.73	3.49	1.78	3.22	10.6	25.9	2.21	5.71	2.31	6.94	14.4	31.9	1.28	2.94	18.6	37.8	1.81	3.61	2.15	5.55
S=c1ssc(Sc2ccccn2)c1Cl	21	42.7	4.62	16.7	19.2	38.7	3.97	15.1	3.56	9.78	17.5	31.3			6.99	21.9	20.3	40.8	1.56	4.14
N#Cc1ccccc1NC(=O)c1ccccc1		> 100		> 100		> 100						> 100		> 100				> 100		> 100
CN(C)c1ccc(C(N)=O)cn1		> 100		> 100		> 100		> 100		> 100		> 100		> 100		> 100		> 100		> 100
O=[N+]([O-])c1nccn1CC1OC(n2ccnc2[N+](=O)[O-])C(O)C(O)C1O (centres undefined)		> 100		> 100		> 100		> 100		> 100		> 100		> 100				> 100		> 100
